Results published in US7592341B2, “Peptide-enhanced corneal drug delivery” (Kansas State University Research Foundation, priority 2004, dated 2009).
No end group written: not given here.

Key:
MDCK monolayers = assay: Methotrexate uptake in epithelial monolayer experiments; type: cell-based, canine; conditions: peptide washout experiments in culture; LC-ESI-MS
Method: This example followed the procedures of the monolayer experiments of Example 1 in order to test the uptake of fluorescently labeled methotrexate (MTX) and MTX that was not fluorescently labeled. Enhanced uptake of the fluorescently labeld MTX was not observed during co-incubation due to adverse interactions between the peptide and the modified drugs. However, in peptide washout experiments in culture, MTX uptake increased by ten-fold. Measurement of the unlabeled MTX was performed using LC-ESI-MS and a standard MTX amount for calibration and comparison purposes.

corneal epithelium [1] = assay: Electron microscopy with ruthenium red of treated corneas (tight junction opening, morphology); conditions: 30 minute preincubation samples; for corneal epithelial morphology by EM: 200 μM peptide or 0.01% BAC
Method: In order to document the in situ opening of the tight junctions, peptide treated corneas were chemically fixed at the end of a dye transport assay for morphology studies. The control and test samples were treated with the dye ruthenium red, which binds to the plasma membrane of epithelium and cannot pass the tight junctions. […] As a control, the ophthalmic preservative benzalkonium chloride (BAC) was used in place of the peptide. […] NC-1059 (Seq. ID No. 1) was compared to BAC in a paired cornea experiment: 0.01% BAC solution and 200 μM ml of the peptide were incubated individually for either 15 or 30 minutes in the test chambers. The solutions were washed. 5 mL of BSS plus was added to both chambers and then spiked with 2 mL of CF. Sample aliquots were taken (100 μL) every half hour from the endothelial chamber for 6 hours. […] At the end of the experiment treated corneas were tested for residual internalized CF and then fixed for morphological analysis by EM. […] An EM study using ruthenium red to highlight the plasma membrane and grid staining to increase the contrast was performed on the 30 minute samples used to generate FIG. 5.

corneal epithelium [2] = conditions: rabbit, in vivo
Method: A series of in vivo corneal epithelial permeability experiments in unanaesthetized rabbits was also conducted. NC-1059 (Seq. ID No. 1) was prepared in BSS (200 μM) and placed inside the lower eyelid of one eye with the other eye receiving an equal amount of BSS alone. The solutions were held in place for 3 minutes and then washed with BSS. After the indicated incubation periods, both eyes received 300 μM NaF or CF and the dye was kept in place for 3 or 5 minutes. After the contact period the eyes were washed with 40 mL of BSS solution. Total uptake was measured for both the control and treated eyes with an OcuMetrics, Ocular Fluorophotometer. The fold changes between the peptide treated and untreated eyes were calculated (FIG. 7). […] It would also appear that adding the dye immediately after peptide exposure results in the highest permeation. […] The reduced uptake at the 6-hour time point documents the transient effects of the peptide in vivo. This transient effect has been observed under all assay conditions: in vitro, in situ and in vivo. In the final column, the fold increase is only 1.7±1.1 (n=2). Viewed alone, this fold increase is some-what misleading because the net amount of more hydrophobic NaF taken up in eyes is higher (7.8-fold) than with the CF dye.

[3] = test system: small intestine epithelia; conditions: reduction in epithelial resistance; cited from earlier work
rabbit cornea = assay: Ex vivo transcorneal dye transport and corneal dye uptake in isolated rabbit cornea (perfusion chamber); conditions: for residual internalized CF in cornea: washed, 200 μM peptide or 0.01% BAC, FIG. 6
Method: For rabbit in vitro studies, corneas were obtained from eyes of New Zealand White rabbits weighing 5.0 to 5.5 kg, which were anesthetized and then killed by intracardiac injection of sodium pentobarbital (97.2 mg/kg). […] For a given pair of eyes, the epithelium was scraped from one of the corneas with a scalpel blade; on the opposite eye the epithelium was left intact. […] This method prevented trauma to the corneal epithelium and distortion of the corneal curvature during clamping in the acrylic-block perfusion system. The scleral rim serves as a gasket and permits the cornea to be suspended within the corneal ring.
The retina and pigment epithelium were removed and the cornea was clamped in the corneal holder. The exposed surface area for diffusion was 1.2 cm^2 for the cornea and 1.1 cm^2 for the sclera. The perfusion chamber was made of acrylic and placed in a water jacket to maintain the temperature of the cornea and perfusion medium at 35° C. A volume of 6 mL of balanced salt solution with oxidized glutathione (BBS Plus, Alcon Laboratories Inc, Fort Worth, Tex.) at pH 7.4 was placed in the endothelial chamber. The peptides were added to the balanced salt solution with oxidized glutathione at a concentration of 1 mM. Six milliliters of each solution was added to the epithelial chamber. […] Serial 0.5-mL samples were removed from each reservoir at 30-minute intervals, and after three hours at the termination of the permeability study, the remaining 3 mL was removed. […] The corneal permeability (P) was obtained by taking into account the volume (6 mL) of the endothelial chamber and the corneal area (square centimeters), as follows: P=kin endothelial chamber volume/corneal area.
Numerous paired sets of experiments were conducted using each of the two dyes. The paired experiments included a control cornea obtained from one of the eyes of a rabbit, which was bathed in the BSS+ buffer and given 100 μL of water at the start of the experiment. In the test cornea, from the second eye of the same rabbit, 100 μL of peptide was added at time zero to produce a 150-200 μM peptide solution in BSS+. Both the water and the peptide additions were made on the apical surface of the cornea. After 20-30 minutes of incubation, dye was added to the apical bathing solution (final concentration 300 μM of dye) and allowed to remain in contact with the cornea for 6 hours. […] At 30-minute intervals, 75-100 μL aliquots were removed from the endothelial bathing chamber and the concentration of the transported dye determined. In some later experiments the corneal surfaces were rinsed 2-3 times with fresh BSS+ (wash out) to remove unbound peptide prior to the addition of the dye. The peptide is added to the apical bathing chamber.

corneal epithelium [4] = conditions: known; cited from earlier work

CN(Cc1cnc2nc(N)nc(N)c2n1)c1ccc(C(=O)N[C@@H](CCC(=O)O)C(=O)O)cc1 [MTX, methotrexate]
increase of MTX uptake (MDCK monolayers): ten-fold

KKKKAARVGLGITTVLVTTIGLGVRAA [NC-1059]
corneal epithelial morphology by EM (corneal epithelium [1]): normal healthy epithelial morphology

Sodium Carboxy Fluorescein [NaF]
net amount of NaF taken up in eyes relative to CF dye (corneal epithelium [2]): 7.8 fold

ZOT: zonula occludens toxin of Vibrio cholerae, 399 a.a.
onset of effects [3]: < 20 min

benzalkonium chloride [BAC]
depth of ruthenium red staining of multilayered corneal epithelium (corneal epithelium [1]): 4-5 layers
corneal epithelial morphology by EM (corneal epithelium [1]): altered morphology with some cells appearing swollen
induced transport rates for CF in paired corneas, BAC vs NC-1059 (rabbit cornea; 15 min preincubation, FIG. 5A): appear identical
residual internalized CF in cornea (rabbit cornea; 15 min preincubation): 27.8 µg
residual internalized CF in cornea (rabbit cornea; 30 min preincubation): 40.7 µg
induced CF translocation in paired corneas, BAC vs NC-1059 (rabbit cornea; 30 minutes preincubation, FIG. 5B): begins to promote increased CF translocation after the three-hour test point
concentration above which BAC causes cellular damage (corneal epithelium [4]): greater than 0.005%
